From ChEMBL document CHEMBL1201862, “PubChem BioAssay data set” (2004)
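Cells were grown in 96-well plates and exposed to each compound for 48 hours at five concentrations; endpoints were interpolated linearly between bracketing concentrations, or set to the highest concentration if not reached. The concentration for 50% growth inhibition is given as GI50.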 Activity calls are given as the source filed them. Rule as the data show it: active = GI50 up to about 1.1 µM and inactive = higher.

Legend:
Test in all cases: NCI-60 cell line screen, 48 h
HCT-15 = test system: HCT-15
Malme-3M = test system: Malme-3M
OVCAR-8 = test system: OVCAR-8
RXF 393 = test system: RXF 393
M14 = test system: M14
UACC-257 = test system: UACC-257
OVCAR-5 = test system: OVCAR-5
LOX IMVI = test system: LOX IMVI
MDA-N = test system: MDA-N
OVCAR-3 = test system: OVCAR-3
RPMI-8226 = test system: RPMI-8226
HL-60 = test system: HL-60
SK-MEL-2 = test system: SK-MEL-2
NCI-H23 = test system: NCI-H23
MCF7 = test system: MCF7
NCI-H460 = test system: NCI-H460
HCC 2998 = test system: HCC 2998
TK-10 = test system: TK-10
NCI-H226 = test system: NCI-H226
A498 = test system: A498

| SMILES | GI50 (HCT-15) [µM] | GI50 (Malme-3M) | GI50 (OVCAR-8) | GI50 (RXF 393) | GI50 (M14) | GI50 (UACC-257) | GI50 (OVCAR-5) | GI50 (LOX IMVI) | GI50 (MDA-N) | GI50 (OVCAR-3) | GI50 (RPMI-8226) | GI50 (HL-60) | GI50 (SK-MEL-2) | GI50 (NCI-H23) | GI50 (MCF7) | GI50 (NCI-H460) | GI50 (HCC 2998) | GI50 (TK-10) | GI50 (NCI-H226) | GI50 (A498) |
| --- | --- | --- | --- | --- | --- | --- | --- | --- | --- | --- | --- | --- | --- | --- | --- | --- | --- | --- | --- | --- |
| CC(C)=CCC[C@H](C)[C@H]1CC[C@@H](C)c2cc(O)c(C)cc21 | 18.3 | 18.6 µM (inactive) | 18.5 µM (inactive) | 20.7 µM (inactive) | 18.4 µM (inactive) | 17.4 µM (inactive) | 16.1 µM (inactive) | 16.3 µM (inactive) | 17.4 µM (inactive) | 18.8 µM (inactive) | 26.1 µM (inactive) | 21.1 µM (inactive) | 17 µM (inactive) | 18.1 µM (inactive) | 17.5 µM (inactive) | 18.4 µM (inactive) | 18.9 µM (inactive) | 18.4 µM (inactive) | 18 µM (inactive) | 16.6 µM (inactive) |
| Cc1cccc2c(N)c3cccc(C(=O)NCC[N+]4(Cc5ccc([N+](=O)[O-])cc5)CCOCC4)c3nc12 | 45.1 | 29.4 µM (inactive) | 30.4 µM (inactive) | 62.2 µM (inactive) | 71.8 µM (inactive) | 60.3 µM (inactive) | > 100 µM (inactive) | 39.9 µM (inactive) | 59.6 µM (inactive) | 61.1 µM (inactive) | 26.1 µM (inactive) | 18.2 µM (inactive) | > 79.1 µM (inactive) | 35.9 µM (inactive) | 38.9 µM (inactive) | 14.6 µM (inactive) | 12.3 µM (inactive) | > 79.1 µM (inactive) | 41 µM (inactive) | 42.2 µM (inactive) |
| Cc1ccc(N(C=O)c2c([N+](=O)[O-])cc([N+](=O)[O-])c3c2=[N+]([O-])CN=3)cc1 | 15.4 | 20.3 µM (inactive) | 28.5 µM (inactive) | 20.7 µM (inactive) | 20.8 µM (inactive) | 21 µM (inactive) | > 100 µM (inactive) | 21.9 µM (inactive) | 27.5 µM (inactive) | 24.2 µM (inactive) | 20.7 µM (inactive) | 23 µM (inactive) | 17.7 µM (inactive) | 23.5 µM (inactive) | 21.2 µM (inactive) | > 100 µM (inactive) | 14 µM (inactive) | 35.9 µM (inactive) | > 100 µM (inactive) | 39.6 µM (inactive) |
| NC(CCC(=O)c1ccccn1)C(=O)O (stereo not given) | > 100 | > 100 µM (inactive) | > 100 µM (inactive) | > 100 µM (inactive) | > 100 µM (inactive) | > 100 µM (inactive) | > 100 µM (inactive) | > 100 µM (inactive) | > 100 µM (inactive) | > 100 µM (inactive) | > 100 µM (inactive) | > 100 µM (inactive) | > 100 µM (inactive) | > 100 µM (inactive) | > 100 µM (inactive) | > 100 µM (inactive) | > 100 µM (inactive) | > 100 µM (inactive) | > 100 µM (inactive) | > 100 µM (inactive) |
| CC(=O)Nc1ccc2cc3c(nc2n1)c1cccnc1n3S(=O)(=O)c1ccccc1 | > 100 | > 100 µM (inactive) | > 100 µM (inactive) | > 100 µM (inactive) | > 100 µM (inactive) | > 100 µM (inactive) | > 100 µM (inactive) | 2.66 µM (inactive) | > 100 µM (inactive) | > 100 µM (inactive) | 19.1 µM (inactive) | > 100 µM (inactive) | > 100 µM (inactive) | 10.5 µM (inactive) | > 100 µM (inactive) | > 100 µM (inactive) | > 100 µM (inactive) | > 100 µM (inactive) | > 100 µM (inactive) | > 100 µM (inactive) |
| Cc1cc(C)c([S@@](=O)O[C@@H]2[C@H]3OC(C)(C)O[C@H]3O[C@@H]2[C@H]2COC(C)(C)O2)c(C)c1 | 42.9 | 25.5 µM (inactive) | 19.1 µM (inactive) | 19.3 µM (inactive) | 25.6 µM (inactive) | 19.5 µM (inactive) | 29.2 µM (inactive) | 14 µM (inactive) | 26.6 µM (inactive) | 19.7 µM (inactive) | 17.1 µM (inactive) | 4.18 µM (inactive) | 31.2 µM (inactive) | 31.6 µM (inactive) | 16.7 µM (inactive) | 24.8 µM (inactive) | 22.9 µM (inactive) | 25.5 µM (inactive) | 24.6 µM (inactive) | 11.8 µM (inactive) |
| O=C(CSc1nc2ccc(Cl)cc2c(=O)n1-c1ccccc1)N/N=C1\C(=O)Nc2ccc(F)cc21 | 1.96 | 3.57 µM (inactive) | 1.69 µM (inactive) | 1.76 µM (inactive) | 3.21 µM (inactive) | 3.56 µM (inactive) | 2.9 µM (inactive) | 1.78 µM (inactive) | 2.67 µM (inactive) | 1.89 µM (inactive) | 1.77 µM (inactive) | 3.66 µM (inactive) | 1.95 µM (inactive) | 2.92 µM (inactive) | 2.1 µM (inactive) | 3.7 µM (inactive) | 2.69 µM (inactive) | 4.21 µM (inactive) | 3.5 µM (inactive) | 2.38 µM (inactive) |
| O=C(n1c(=O)n(-c2ccc([N+](=O)[O-])cc2)c(=O)n1C(=O)C(Cl)(Cl)Cl)C(Cl)(Cl)Cl | > 100 | > 100 µM (inactive) | > 100 µM (inactive) | > 100 µM (inactive) | > 100 µM (inactive) | > 100 µM (inactive) | > 100 µM (inactive) | > 100 µM (inactive) | > 100 µM (inactive) | > 100 µM (inactive) | > 100 µM (inactive) | > 100 µM (inactive) | > 100 µM (inactive) | > 100 µM (inactive) | 87.3 µM (inactive) | > 100 µM (inactive) | > 100 µM (inactive) | > 100 µM (inactive) | > 100 µM (inactive) | > 100 µM (inactive) |
| CC(C)C1CC(CO)(CNc2nc(N)nc(Cl)c2/C=N\O)C1 (stereo not given) | 15.7 | 3.22 µM (inactive) | 15.5 µM (inactive) | 18.8 µM (inactive) | 13.1 µM (inactive) | 0.656 µM (active) | 20.1 µM (inactive) | 0.339 µM (active) | 11.3 µM (inactive) | 13.7 µM (inactive) | 2.64 µM (inactive) | 4.6 µM (inactive) | 12 µM (inactive) | 0.519 µM (active) | 0.687 µM (active) | 0.685 µM (active) | 3.94 µM (inactive) | 17.6 µM (inactive) | 14.8 µM (inactive) | 12.3 µM (inactive) |
| C=CCCC1CCCCNC1=S (stereo not given) | > 10 | > 10 µM (inactive) | > 10 µM (inactive) | > 10 µM (inactive) | > 10 µM (inactive) | > 10 µM (inactive) | > 10 µM (inactive) | > 10 µM (inactive) | > 10 µM (inactive) | > 10 µM (inactive) | > 10 µM (inactive) | > 10 µM (inactive) | > 10 µM (inactive) | > 10 µM (inactive) | > 10 µM (inactive) | > 10 µM (inactive) | > 10 µM (inactive) | > 10 µM (inactive) | > 10 µM (inactive) | > 10 µM (inactive) |
| Nc1cc2c3c(c1)Oc1cc(N)cc4c1C3c1c(cc(N)cc1O4)O2 | 18.3 | 6.32 µM (inactive) | 9.48 µM (inactive) | 12.3 µM (inactive) | 26.9 µM (inactive) | 30.5 µM (inactive) | 29 µM (inactive) | 17.9 µM (inactive) | 17.8 µM (inactive) | 20.2 µM (inactive) | 14.7 µM (inactive) | 23.9 µM (inactive) | 28.9 µM (inactive) | 33 µM (inactive) | 24.8 µM (inactive) | 30.3 µM (inactive) | 34.9 µM (inactive) | 41.7 µM (inactive) | 3.07 µM (inactive) | 63.8 µM (inactive) |
